System: promyelocyte leukemia cell strain HL-60
Test: Test for induction of cell differentiation in HL-60 cells (NBT reduction ability)
Assay type: cell-based
Details: for Ratio of cells for which differentiation was induced by each compound alone (%): calculated from NBT reduction ability; for Ratio of cells for which differentiation was induced by each compound in combination with 1 × 10^−7 M of HX630 (%): in combination with 1×10^−7 M HX630 (retinoid synergist)
Procedure: For each of the compounds of the examples, action for inducing cell differentiation was examined for each alone and in combination with 1×10^−7 M of HX630. According to the methods described in Japanese Patent Unexamined Publication (KOKAI) No. (Sho)61-76440/1986, differentiation of the cells of promyelocyte leukemia cell strain HL-60 into granulocytic series cells was determined based on morphological change and measurement of ability to reduce nitro blue tetrazolium (NBT). The ratios (%) of differentiated cells shown in the following table are those calculated from NBT reduction ability. HX630 is a retinoid synergist that enhances actions of retinoids, and the concentrations of −8, −7 and −6 mean that each compound was added at concentrations of 1×10^−8 M, 1×10^−7 M and 1×10^−6 M, respectively.

[1] = compound concentration -6 (1×10^−6 M)
[2] = compound concentration -7 (1×10^−7 M)
[3] = compound concentration -8 (1×10^−8 M)

Compound | Ratio of cells for which differentiation was induced by each compound alone (%) (concentration -6 (1×10^−6 M)) | Ratio of cells for which differentiation was induced by each compound alone (%) (concentration -7 (1×10^−7 M)) | Ratio of cells for which differentiation was induced by each compound alone (%) (concentration -8 (1×10^−8 M)) | Ratio of cells for which differentiation was induced by each compound in combination with 1 × 10^−7 M of HX630 (%) [1] [%] | Ratio of cells for which differentiation was induced by each compound in combination with 1 × 10^−7 M of HX630 (%) [2] [%] | Ratio of cells for which differentiation was induced by each compound in combination with 1 × 10^−7 M of HX630 (%) [3] [%]
CN(C(=O)c1ccc2c(c1)C(C)(C)CCC2(C)C)c1ccc(O)c(=O)cc1 [Tp82] | 1.4 | 1.2 | 0.5 | 42 | 7 | 1.9
CC1(C)CCC(C)(C)c2cc(C=CC=CC(=O)Nc3ccc(O)c(=O)cc3)ccc21 [Tp95] | 0.3 | 0.5 | 0.5 | 1.7 | 0.5 | 0.8
Cc1cc2c(cc1Nc1ccc(O)c(=O)cc1)C(C)(C)CCC2(C)C [Tp20] | 2.7 | 1.8 | 2.1 | 2.4 | 3.7 | 4.6
CC1(C)CCC(C)(C)c2cc(-c3cccc(-c4ccc(O)c(=O)cc4)c3)ccc21 [Tp190] | 0 | 32 | 1.6 | 50 | 90 | 77
CC1(C)CCC(C)(C)c2cc(CCc3ccc(O)c(=O)cc3)ccc21 [Tp150] | 60 | 5.4 | 1.5 | 50 | 80 | 9
CC(C)(C)c1cc(C#Cc2ccc(O)c(=O)cc2)cc(C(C)(C)C)c1 [Tp155] | 62.5 | 24 | 2.7 | 78 | 89 | 68
CC(C)(C)c1cc(C(=O)Nc2ccc(O)c(=O)cc2)cc(C(C)(C)C)c1 [Tp50] | 5.1 | 2.8 | 1.6 |  |  | 
CC1(C)CCC(C)(C)c2cc3sc(-c4ccc(O)c(=O)cc4)cc3cc21 [Tp260] | 55 | 20 | 10 | 67 | 83 | 91
Cc1cc2c(cc1N(C)c1ccc(O)c(=O)cc1)C(C)(C)CCC2(C)C [Tp22] | 18 | 2.4 | 2.8 | 78 | 3.3 | 2.1
CC1(C)CCC(C)(C)c2cc(N=Nc3ccc(O)c(=O)cc3)ccc21 [Tp160] | 32 | 34.4 | 18.5 | 90 | 84 | 81
CC(C)(C)c1cc(N=Nc2ccc(O)c(=O)cc2)cc(C(C)(C)C)c1 [Tp170] | 2.3 | 0.8 | 1.1 | 10 | 2.3 | 0.5
CC1(C)CCC(C)(C)c2cc(C=CC(=O)Nc3ccc(Cl)c(=O)cc3)ccc21 [Tp93] | 9 | 0.8 | 0.6 | 40 | 0.8 | 3.6
Cc1cc2c(cc1C#Cc1ccc(O)c(=O)cc1)C(C)(C)CCC2(C)C [Tp145] | 70 | 76 | 73 | 77 | 75 | 82
CC1(C)CCC(C)(C)c2cc(-c3ccc(-c4ccc(O)c(=O)cc4)s3)ccc21 [Tp210] | 11 | 6 | 0.8 | 91 | 91 | 64
Cc1cc2c(cc1C(=O)Nc1ccc(O)c(=O)cc1)C(C)(C)CCC2(C)C [Tp84] | 26 | 5 | 0.7 | 90 | 89 | 15
CC1(C)CCC(C)(C)c2cc(C(=O)Nc3ccc(O)c(=O)cc3)ccc21 [Tp80] | 21 | 26 | 7 | 79 | 85 | 82
CC1(C)CCC(C)(C)c2cc(C#Cc3ccc(NN)c(=O)cc3)ccc21 [Tp146] | 69 | 2.2 | 3.6 | 83 | 91 | 66
CC1(C)CCC(C)(C)c2cc(-c3ccc(-c4ccc(O)c(=O)cc4)o3)ccc21 [Tp200] | 36 | 14 | 2 | 50 | 95 | 77
CC1(C)CCC(C)(C)c2cc(C#Cc3cccc(=O)cc3)ccc21 [Tp149] | 40 | 4 | 1.4 | 40 | 85 | 3.5
CC1(C)CCC(C)(C)c2cc3cc(-c4ccc(O)c(=O)cc4)ccc3cc21 [Tp250] | 56 | 66 | 63 | 79 | 84 | 91
